Article PMC6333442, “Conserved allosteric pathways for activation of TRPV3 revealed through engineering vanilloid-sensitivity” (eLife, 2019)

Experiments:
TRPV3-4M/V2P = test: Two-electrode voltage clamp, TRPV3-4M/V2P chimera in oocytes; format: cell-based, mouse; details: RTx 100 nM, 2-APB 3 mM, room temperature, ±60 mV
Protocol: (§1) All channel constructs were expressed in Xenopus laevis oocytes and studied using the two-electrode voltage clamp technique (TEVC) following 1–4 days of incubation after cRNA injection. The animal care and experimental procedures were performed in accordance with the Guide for the Care and Use of Laboratory Animals and were approved by the Animal Care and Use Committee of the National Institute of Neurological Disorders and Stroke (Animal protocol number 1253–17). Oocytes were removed surgically and incubated with agitation for 1 hr in a solution containing (in mM) 82.5 NaCl, 2.5 KCl, 1 MgCl2, 5 HEPES, pH 7.6 (with NaOH), and collagenase (2 mg/ml; Worthington Biochemical, Lakewood, NJ). Defolliculated oocytes were injected with cRNA for each of the constructs and incubated at 17°C in a solution containing (in mM) 96 NaCl, 2 KCl, 1 MgCl2, 1.8 CaCl2, 5 HEPES, pH 7.6 (with NaOH), and gentamicin (50 μg/ml, GIBCO-BRL, Gaithersburg, MD). Oocyte membrane voltage was controlled using an OC-725C oocyte clamp (Warner Instruments, Hamden, CT). Data were filtered at 1–3 kHz and digitized at 20 kHz using pClamp software (Molecular Devices, Sunnyvale, CA) and a Digidata 1440A digitizer (Axon Instruments). Microelectrode resistances were 0.1–1 MΩ when filled with 3 M KCl. For recording TRP channel currents, the external recording solution contained (in mM) 100 KCl, 10 HEPES, pH 7.6 (with KOH). […]

rat TRPV2-4M = molecular target: T1, rat TRPV2-4M (Rattus norvegicus, UniProt Q9WUD2, F472S/L507M/L510T/Q530E); test: Two-electrode voltage clamp, TRPV2-4M in oocytes; format: cell-based; details: RTx 100 nM, room temperature, ±60 mV
T1 construct: expressed in transfected cells; host or cells: Xenopus laevis oocytes
T1 sequence (Q9WUD2 1-761 F472S/L507M/L510T/Q530E): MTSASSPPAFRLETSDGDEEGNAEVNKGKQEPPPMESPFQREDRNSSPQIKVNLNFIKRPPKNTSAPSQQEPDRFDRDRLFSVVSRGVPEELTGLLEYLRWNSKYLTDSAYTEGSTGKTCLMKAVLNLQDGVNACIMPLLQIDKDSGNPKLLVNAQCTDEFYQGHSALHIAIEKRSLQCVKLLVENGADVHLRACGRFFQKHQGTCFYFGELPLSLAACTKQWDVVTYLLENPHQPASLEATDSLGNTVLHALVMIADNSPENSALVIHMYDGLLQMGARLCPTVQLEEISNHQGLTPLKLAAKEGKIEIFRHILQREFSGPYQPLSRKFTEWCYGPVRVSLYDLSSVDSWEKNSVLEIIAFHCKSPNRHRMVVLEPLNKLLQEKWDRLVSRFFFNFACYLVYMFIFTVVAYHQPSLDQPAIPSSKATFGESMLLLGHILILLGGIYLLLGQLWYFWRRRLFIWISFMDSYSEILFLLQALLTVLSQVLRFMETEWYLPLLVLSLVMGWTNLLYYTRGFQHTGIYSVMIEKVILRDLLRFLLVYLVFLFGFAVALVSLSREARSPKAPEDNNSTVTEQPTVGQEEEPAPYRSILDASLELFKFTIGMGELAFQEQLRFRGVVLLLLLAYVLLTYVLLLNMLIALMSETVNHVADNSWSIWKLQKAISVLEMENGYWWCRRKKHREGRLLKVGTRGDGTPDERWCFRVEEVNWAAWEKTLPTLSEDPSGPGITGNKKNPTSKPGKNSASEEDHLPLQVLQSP
Protocol: as §1

Compound	channel activation (current response) (TRPV3-4M/V2P)	channel activation (current response) (rat TRPV2-4M)
NCCOB(c1ccccc1)c1ccccc1 [2-APB, 2-aminoethoxydiphenyl borate]	could be activated	–
C=C(C)[C@]12C[C@@H](C)[C@@]34O[C@](Cc5ccccc5)(O[C@@H]1[C@@H]3C=C(COC(=O)Cc1ccc(O)c(OC)c1)C[C@]1(O)C(=O)C(C)=C[C@@H]41)O2 [RTx, resiniferatoxin]	–	robust responses
